Assay results published in patent US8815918B2, “Imidazo [2, 1-B] [1, 3, 4] thiadiazole derivatives” (Centro Nacional de Investigaciones Oncologicas (CNIO), priority 2009, dated 2014).
Where two headings read alike, the source gives them in different places.

Target: PI3K (p110α/p85α) (Homo sapiens (Human), UniProt P42336)
Assay: PI3K Activity Assay (ADP Hunter Plus)
Type: biochemical
Description: The kinase activity was measured by using the commercial ADP Hunter™ Plus assay available from DiscoveRx (#33-016), which is a homogeneous assay to measure the accumulation of ADP, a universal product of kinase activity. The enzyme, PI3K (p110α/p85α was purchased from Carna Biosciences (#07CBS-0402A). The assay was done following the manufacturer recommendations with slight modifications: Mainly the kinase buffer was replace by 50 mM HEPES, pH 7.5, 3 mM MgCl2, 100 mM NaCl, 1 mM EGTA, 0.04% CHAPS, 2 mM TCEP and 0.01 mg/ml BGG. The PI3K was assayed in a titration experiment to determine the optimal protein concentration for the inhibition assay. To calculate the IC50 of the ETP-compounds, serial 1:5 dilutions of the compounds were added to the enzyme at a fixed concentration (2.5 μg/mL. The enzyme was preincubated with the inhibitor and 30 μM PIP2 substrate (P9763, Sigma) for 5 min and then ATP was added to a final 50 μM concentration. Reaction was carried out for 1 hour at 25° C. Reagent A and B were sequentially added to the wells and plates were incubated for 30 min at 37° C. Fluorescence counts were read in a Victor instrument (Perkin Elmer) with the recommended settings (544 and 580 nm as excitation and emission wavelengths, respectively). Values were normalized against the control activity included for each enzyme (i.e., 100% PI3 kinase activity, without compound). These values were plot against the inhibitor concentration and were fit to a sigmoid dose-response curve by using the Graphad software.

[1] = read-out: Biological activity in PI3Kα, semi-quantitative

Chain of PI3K (p110α/p85α) (P42336 whole entry): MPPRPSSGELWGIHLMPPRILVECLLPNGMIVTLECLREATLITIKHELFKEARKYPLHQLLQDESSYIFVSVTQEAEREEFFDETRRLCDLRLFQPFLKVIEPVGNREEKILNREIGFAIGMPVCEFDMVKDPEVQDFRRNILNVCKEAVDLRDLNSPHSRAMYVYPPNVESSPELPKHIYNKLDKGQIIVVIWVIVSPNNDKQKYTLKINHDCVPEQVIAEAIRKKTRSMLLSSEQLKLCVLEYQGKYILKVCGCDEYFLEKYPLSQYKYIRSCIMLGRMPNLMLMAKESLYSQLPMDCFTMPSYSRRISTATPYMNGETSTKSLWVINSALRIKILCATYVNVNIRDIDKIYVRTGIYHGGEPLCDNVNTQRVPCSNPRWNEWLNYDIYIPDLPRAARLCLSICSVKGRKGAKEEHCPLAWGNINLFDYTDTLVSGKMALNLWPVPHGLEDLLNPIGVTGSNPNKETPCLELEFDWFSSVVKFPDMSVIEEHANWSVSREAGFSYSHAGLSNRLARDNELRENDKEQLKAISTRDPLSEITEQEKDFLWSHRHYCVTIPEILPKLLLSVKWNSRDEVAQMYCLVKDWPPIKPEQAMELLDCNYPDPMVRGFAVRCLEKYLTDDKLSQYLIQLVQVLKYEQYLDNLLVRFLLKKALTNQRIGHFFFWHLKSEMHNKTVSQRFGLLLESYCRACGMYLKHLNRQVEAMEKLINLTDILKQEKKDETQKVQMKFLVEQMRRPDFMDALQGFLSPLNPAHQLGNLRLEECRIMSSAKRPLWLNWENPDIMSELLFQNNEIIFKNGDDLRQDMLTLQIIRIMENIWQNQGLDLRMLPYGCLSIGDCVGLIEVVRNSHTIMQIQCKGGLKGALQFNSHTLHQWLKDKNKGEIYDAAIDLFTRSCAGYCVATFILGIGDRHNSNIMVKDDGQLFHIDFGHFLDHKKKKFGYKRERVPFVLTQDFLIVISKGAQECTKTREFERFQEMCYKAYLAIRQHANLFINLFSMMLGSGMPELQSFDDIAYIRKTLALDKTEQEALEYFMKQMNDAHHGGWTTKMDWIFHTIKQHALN
Chain of PI3K (p110α/p85α) (P27986 whole entry partner): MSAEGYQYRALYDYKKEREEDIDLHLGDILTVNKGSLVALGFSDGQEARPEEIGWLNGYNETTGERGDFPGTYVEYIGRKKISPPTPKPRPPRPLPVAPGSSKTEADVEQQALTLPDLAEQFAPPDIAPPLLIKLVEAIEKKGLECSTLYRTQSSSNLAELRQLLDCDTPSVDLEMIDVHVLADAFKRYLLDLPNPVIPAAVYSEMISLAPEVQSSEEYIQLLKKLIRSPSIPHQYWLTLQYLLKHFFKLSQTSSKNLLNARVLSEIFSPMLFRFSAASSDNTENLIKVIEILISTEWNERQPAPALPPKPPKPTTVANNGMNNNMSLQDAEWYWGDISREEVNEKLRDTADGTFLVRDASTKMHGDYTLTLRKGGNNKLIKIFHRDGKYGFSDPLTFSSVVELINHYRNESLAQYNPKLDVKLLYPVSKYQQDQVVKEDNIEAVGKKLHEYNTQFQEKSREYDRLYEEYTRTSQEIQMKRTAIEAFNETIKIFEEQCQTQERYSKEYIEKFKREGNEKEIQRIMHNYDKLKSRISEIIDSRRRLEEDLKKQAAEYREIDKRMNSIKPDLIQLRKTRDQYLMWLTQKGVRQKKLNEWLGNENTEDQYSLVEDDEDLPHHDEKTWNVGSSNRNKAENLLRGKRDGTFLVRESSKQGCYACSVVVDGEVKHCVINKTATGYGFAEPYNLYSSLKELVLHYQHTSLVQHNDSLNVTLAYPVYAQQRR

| IC50 [1] [µM] | IC50 (read-out: IC50 [μM] PI3Kα) [µM] | inhibition at 10 µM (10 μM compound concentration, read-out: Inhibition (%) of PI3Kα activity, Inh (%) at 10 μM) [%] | SMILES |
| --- | --- | --- | --- |
| < 0.1 |  |  | CS(=O)(=O)Nc1cccc(-c2nn3c(-c4cnc(N)c(C(F)(F)F)c4)cnc3s2)c1 [Example 31, N-{3-[5-(6-Amino-5-trifluoromethyl-pyridin-3-yl)-imidazo[2,1-b][1,3,4]thiadiazol-2-yl]-phenyl}-methanesulfonamide] |
| 0.1 to 1 |  |  | N#Cc1ccc(-c2nn3c(-c4cnc(N)c(C(F)(F)F)c4)cnc3s2)cc1 [Example 33, 4-[5-(6-Amino-5-trifluoromethyl-pyridin-3-yl)-imidazo[2,1-b][1,3,4]thiadiazol-2-yl]-benzonitrile] |
| < 0.1 |  |  | CS(=O)(=O)NCc1cccc(-c2nn3c(-c4cnc(N)c(C(F)(F)F)c4)cnc3s2)c1 [Example 34, N-{3-[5-(6-Amino-5-trifluoromethyl-pyridin-3-yl)-imidazo[2,1-b][1,3,4]thiadiazol-2-yl]-benzyl}-methanesulfonamide] |
| < 0.1 | 0.095 |  | CCn1cc(-c2nn3c(-c4cnc(N)c(C(F)(F)F)c4)cnc3s2)cn1 [Example 36, 5-[2-(1-Ethyl-1H-pyrazol-4-yl)-imidazo[2,1-b][1,3,4]thiadiazol-5-yl]-3-trifluoromethyl-pyridin-2-ylamine] |
| < 0.1 |  |  | Cc1ccncc1-c1nn2c(-c3cnc(N)c(C(F)(F)F)c3)cnc2s1 [Example 37, 5-[2-(4-Methyl-pyridin-3-yl)-imidazo[2,1-b][1,3,4]thiadiazol-5-yl]-3-trifluoromethyl-pyridin-2-ylamine] |
| 0.1 to 1 |  |  | CN(C)c1cccc(-c2nn3c(-c4cnc(N)c(C(F)(F)F)c4)cnc3s2)c1 [Example 42, 5-[2-(3-Dimethylamino-phenyl)-imidazo[2,1-b][1,3,4]thiadiazol-5-yl]-3-trifluoromethyl-pyridin-2-ylamine] |
| < 0.1 |  |  | CC(=O)Nc1cccc(-c2nn3c(-c4cnc(N)c(C(F)(F)F)c4)cnc3s2)c1 [Example 46, N-{3-[5-(6-Amino-5-trifluoromethyl-pyridin-3-yl)-imidazo[2,1-b][1,3,4]thiadiazol-2-yl]-phenyl}-acetamide] |
| < 0.1 | 0.021 |  | COc1cncc(-c2nn3c(-c4cnc(N)c(C(F)(F)F)c4)cnc3s2)c1 [Example 47, 5-[2-(5-Methoxy-pyridin-3-yl)-imidazo[2,1-b][1,3,4]thiadiazol-5-yl]-3-trifluoromethyl-pyridin-2-ylamine] |
| < 0.1 | 0.018 |  | COC(=O)c1ccc(-c2cnc3sc(-c4cnc(N)c(C(F)(F)F)c4)nn23)cc1OC [Example 51, 4-[2-(6-Amino-5-trifluoromethyl-pyridin-3-yl)-imidazo[2,1-b][1,3,4]thiadiazol-5-yl]-2-methoxy-benzoic acid methyl ester] |

Second part, the compound before the results:

| SMILES | IC50 [1] [µM] | IC50 (read-out: IC50 [μM] PI3Kα) [µM] | inhibition at 10 µM (10 μM compound concentration, read-out: Inhibition (%) of PI3Kα activity, Inh (%) at 10 μM) [%] |
| --- | --- | --- | --- |
| Nc1ncc(-c2cnc3sc(-c4cccnc4)nn23)cc1C(F)(F)F [Example 32, 5-(2-Pyridin-3-yl-imidazo[2,1-b][1,3,4]thiadiazol-5-yl)-3-trifluoromethyl-pyridin-2-ylamine] | < 0.1 |  |  |
| NC(=O)c1cccc(-c2nn3c(-c4cnc(N)c(C(F)(F)F)c4)cnc3s2)c1 [Example 35, 3-[5-(6-Amino-5-trifluoromethyl-pyridin-3-yl)-imidazo[2,1-b][1,3,4]thiadiazol-2-yl]-benzamide] | < 0.1 |  |  |
| CC(C)(C)OC(=O)N1CCC2(CC1)C(=O)Nc1ccc(-c3nn4c(-c5cnc(N)c(C(F)(F)F)c5)cnc4s3)cc12 [Example 38, 5-[2-(1′-(tert-butoxycarbonyl)-2-oxo-1,2-dihydrospiro[indole-3,4′-piperidine]-5-yl)-imidazo[2,1-b][1,3,4]thiadiazol-5-yl]-3-trifluoromethyl-pyridin-2-ylamine] | 1 to 50 |  |  |
| Nc1ncc(-c2cnc3sc(-c4ccc5c(c4)C4(CCNCC4)C(=O)N5)nn23)cc1C(F)(F)F [Example 39, 5-[2-(2-oxo-1,2-dihydrospiro[indole-3,4′-piperidine]-5-yl)-imidazo[2,1-b][1,3,4]thiadiazol-5-yl]-3-trifluoromethyl-pyridin-2-ylamine] | < 0.1 |  |  |
| Nc1ncc(-c2cnc3sc(-c4ccc5[nH]ccc5c4)nn23)cc1C(F)(F)F [Example 40, 5-[2-(1H-Indol-5-yl)-imidazo[2,1-b][1,3,4]thiadiazol-5-yl]-3-trifluoromethyl-pyridin-2-ylamine] | 0.1 to 1 | 0.676 |  |
| CS(=O)(=O)c1cccc(-c2nn3c(-c4cnc(N)c(C(F)(F)F)c4)cnc3s2)c1 [Example 41, 5-[2-(3-Methanesulfonyl-phenyl)-imidazo[2,1-b][1,3,4]thiadiazol-5-yl]-3-trifluoromethyl-pyridin-2-ylamine] | < 0.1 | 0.05 |  |
| Cc1ccc(-c2nn3c(-c4cnc(N)c(C(F)(F)F)c4)cnc3s2)cn1 [Example 43, 5-[2-(6-Methyl-pyridin-3-yl)-imidazo[2,1-b][1,3,4]thiadiazol-5-yl]-3-trifluoromethyl-pyridin-2-ylamine] | < 0.1 | 0.062 |  |
| Nc1ncc(-c2cnc3sc(-c4ccc(S(=O)(=O)N5CCOCC5)cc4)nn23)cc1C(F)(F)F [Example 44, 5-{2-[4-(Morpholine-4-sulfonyl)-phenyl]-imidazo[2,1-b][1,3,4]thiadiazol-5-yl}-3-trifluoromethyl-pyridin-2-ylamine] | 0.1 to 1 |  |  |
| Nc1ncc(-c2cnc3sc(-c4cccc(S(=O)(=O)N5CCOCC5)c4)nn23)cc1C(F)(F)F [Example 45, 5-{2-[3-(Morpholine-4-sulfonyl)-phenyl]-imidazo[2,1-b][1,3,4]thiadiazol-5-yl}-3-trifluoromethyl-pyridin-2-ylamine] | 0.1 to 1 | 0.437 |  |
| CS(=O)(=O)c1ccc(-c2cnc3sc(-c4cnc(N)c(C(F)(F)F)c4)nn23)cc1 [Example 49, 5-[5-(4-Methanesulfonyl-phenyl)-imidazo[2,1-b][1,3,4]thiadiazol-2-yl]-3-trifluoromethyl-pyridin-2-ylamine] | < 0.1 |  |  |
| Nc1ncc(-c2nn3c(-c4ccc(F)nc4)cnc3s2)cc1C(F)(F)F [Example 50, 5-[5-(6-Fluoro-pyridin-3-yl)-imidazo[2,1-b][1,3,4]thiadiazol-2-yl]-3-trifluoromethyl-pyridin-2-ylamine] | 0.1 to 1 |  | 97 |
